Results: paper PMC10850501 (Nature Communications, 2024)
Entries after “also recorded” stand apart in the source; their conditions may differ. Where two headings read alike, the source gives them in different places. Peptide text beside a SMILES is read from it.

Columns and labels:
[1] = Acute IV pharmacokinetics; format: in vivo, rat (female Wistar); details: ESBP3 200μL (10 mg/mL) IV bolus, Wistar rats (n=8)
Description: (§1) Female Wistar rats (225–250 g, 8–12 weeks old) were observed and acclimatized for 2 weeks prior to running the studies. They were housed in a controlled environment with temperature at […] and 40–70% humidity. They were kept in an alternating 12-hour light/dark cycle, and food, and water was provided as pellets ad libitum. Female Wistar Rats were used for the pharmacokinetics and the drug clearance analysis from the blood. The two hydrogels (ESBP2 and ESBP3) at 10 mg/ml concentration were injected into the rats via the lateral tail vein. For subcutaneous implants, the substance was injected between the shoulder blades and above the lumbar vertebrae, 200 μL each, using a 25-gauge needle. The hydrogel bolus was prepared with 0.9% saline and was injected within 1–2 minutes. The volume injected was approximately 1% of the total body weight of the rat, which was calculated prior to the dosing. The initial blood draw was performed for baseline, and the subsequent blood collection was performed from the lateral vein using 25 g butterfly needles.
Rat blood samples were collected at 0, 5, 15, 30 minutes, and 1, 2, 4, 8, and 24 hours post-injection timepoints for Acute PK and were aliquoted out into heparinized tubes to prevent coagulation and stored on top of ice packs. Blood collected in K2EDTA anticoagulant tubes was processed to plasma frozen via centrifugation at 13000 RCF for 10 minutes at 4 °C and stored at −80 °C till analysis using HPLC. The body weight was recorded every day prior to the blood collection.

[2] = Ultracentrifugation pellet / solid-state NMR of assemblies; format: physicochemical; details: 10 mg/mL, 150,000 RCF, 30 minutes, 4 °C
Description: To experimentally validate E1:ESBP3 peptide mixtures, solid-state NMR experiments were pursued. ^13C solid-state NMR measurements were conducted using cross-polarization magic angle spinning (^1H-^13C CPMAS) to evaluate sample structural order and structural differences between samples. The peptides were not isotopically enriched, so the ^13C signal was from the 1% natural abundance for ^13C.
After peptide dissolution at 10 mg/mL, the samples were concentrated by ultracentrifugation for 30 minutes in Bruker 3.22 mm NMR rotors at 4 °C and 150,000 RCF in Ultra-clear tubes of SW-41 Ti swinging bucket rotor fitted onto a Beckman Optima XPN-100 centrifuge. A 11.75 T magnet Bruker Avance III HD 500 spectrometer (500 MHz, ^1H NMR Larmor frequency) equipped with a room temperature 3.2 mm Bruker Low-E ^1H/^13C/^15N NMR probe was used for measurements. ^13C chemical shift referencing was conducted using adamantane referenced to tetramethylsilane. 1D ^13C cross-polarization magic angle spinning (CPMAS) spectra were collected using the standard Bruker cp pulse sequence. A 10 kHz magic angle spinning speed was used for all samples. The channels frequency for the optimization of the Hartmann-Hahn condition for ^1H and ^13C are 500.133 MHz and 125.771 MHz, respectively. A recycle delay time of 4 seconds (d1) and dwell time of 5 μs (DW) were used. Acquisition time was set to 10.24 ms. […]

SARS-CoV-2 Spike-RBD = SARS-CoV-2 Spike-RBD (Severe acute respiratory syndrome coronavirus 2, UniProt P0DTC2); format: binding
[3] = Daily repeat IV dosing, 10 days (chronic PK/safety); format: in vivo, rat (female Wistar)
Description: as §1
Female Wistar rats (225–250 g, 8–12 weeks old) were weighed and repeatedly dosed (1% by weight) IV with ESBP2 or ESBP3 daily at 10 mg/mL (~3 mM). Rat blood samples were collected daily prior to injection via tail vein. Post 10 days of treatment, animals were allowed to recover for 10 days and then sacrificed. Plasma was stored and analyzed as above. The body weight was recorded every day prior to the blood collection.

[4] = Subcutaneous bolus biocompatibility; format: in vivo, rat (female Wistar)
Description: The peptide hydrogel was prepared at 10 mg/mL in sterile saline and aspirated in sterile 1 mL syringes, with careful attention to avoid air bubbles. Female Wistar rats (225–250 g, 8–12 weeks old) were used for dorsal subcutaneous implantation. The rats were anesthetized using 2.5% isoflurane and […], after which the back of the rat’s hair was shaved and sterilized with 3 alternating applications of isopropanol and betadine. 200 µL boluses of the peptide hydrogel were injected with a 25 G needle at n = 4 for a time point of 7 days. After the time point, the animals were sacrificed, and the implant regions were collected and fixed overnight in 10% buffered formalin. The Rutgers Cancer Institute of New Jersey histology core processed the paraffin-embedded samples for histological evaluation after staining with hematoxylin and eosin and Masson’s Trichrome. Samples were also fixed in glutaraldehyde and formaldehyde, processed to eponate blocks, and sectioned with an ultramicrotome for electron microscopy imaging (above)[30],[76],[87].
as §1

A549 cells = assay: Cytocompatibility (CCK8); format: cell-based, human; details: human alveolar epithelial A549 cells; 0.01-1 mM
Description: (§2) Cytocompatibility of the peptides was evaluated at 1, 0.1, and 0.01 mM with A549 cells (ATCC CCL-185) cultured in complete media consisting of 90% F-12K and 10% FBS. The A549 cells were utilized after their first passage and seeded at 10,000 cells/well in a 96-well plate for 24 hours. The conditions were prepared in serum-free A549 media and introduced into the wells for 6 hours, after which the condition media were aspirated, the wells were washed once with PBS, and 10 µL of CCK8 was added to 100 µL of PBS[32]. The plate was incubated for 1 hour and read on a Tecan M200 Infinite plate reader at an absorbance of 450 nm with a reference wavelength of 650 nm. The results were analyzed and normalized to the serum-free media control[28],[32],[76].

Cytocompatibility (CCK8) = format: cell-based, human; details: human, A549 cells, read-out: cytocompatibility, normalized to serum free media; for viability at 6 h, 10 µM: 0.01 mM peptide; for viability at 6 h, 100 µM: 0.1 mM peptide; for viability at 6 h, 1000 µM: 1 mM peptide
Description: as §2

[5] = Intranasal repeat dose tolerability; format: in vivo, mouse (female C57BL/6); details: 25µL / nostril x 2 daily for 10 days in mice; histopathology H&E, MT
Description: Female C57BL/6 mice (15–20 g, 8–12 weeks old) were used for intranasal dosing of the peptide. As mentioned previously, 25 µl of hydrogels were injected into each of the nasal cavities twice daily at an interval of 8 hours for 10 days consecutively. The organs were harvested at the final time point, and sectioning was performed for histological evaluation. The plasma was also collected for quantifying peptide clearance in the bloodstream of the animal model.

CC[C@H](C)[C@H](NC(=O)[C@H](Cc1ccc(O)cc1)NC(=O)[C@@H](NC(=O)[C@H](CCCCN)NC(=O)[C@H](Cc1ccc(O)cc1)NC(=O)[C@H](CCC(N)=O)NC(=O)CNC(=O)[C@H](CCC(=O)O)NC(=O)[C@H](CC(C)C)NC(=O)[C@H](CO)NC(=O)[C@H](CC(C)C)NC(=O)[C@H](CO)NC(=O)[C@H](CC(C)C)NC(=O)[C@H](CO)NC(=O)[C@H](CC(C)C)NC(=O)[C@H](CO)NC(=O)[C@H](CC(C)C)NC(=O)[C@H](CO)NC(=O)[C@H](CC(C)C)NC(=O)[C@H](CO)NC(=O)[C@H](CCC(=O)O)NC(C)=O)[C@@H](C)O)C(=O)N[C@@H](CC(=O)O)C(=O)N[C@@H](CCCCN)C(=O)N[C@@H](CC(N)=O)C(=O)N[C@@H](CC(N)=O)C(=O)N[C@@H](Cc1c[nH]cn1)C(=O)N[C@@H](Cc1ccc(O)cc1)C(=O)N[C@@H](C)C(=O)N[C@@H](CCC(=O)O)C(=O)N[C@@H](CC(=O)O)C(=O)N[C@@H](CCC(=O)O)C(=O)N[C@@H](CCCNC(=N)N)C(=O)N[C@@H](Cc1ccc(O)cc1)C(=O)N[C@@H](CCCCN)C(N)=O [ESBP3] (Ac-ESLSLSLSLSLSLEGQYKTYIDKNNHYAEDERYK-NH2)
eliminated by [1]: ≤ 8 h | Cmax ([1]; female, rat, plasma, 2 mg, at 5 min, read-out: observed maximum concentration): ~550 µg/mL | AUC ([1]; female, rat, plasma, 2 mg, read-out: AUC): 395 µg·h/mL | ultracentrifuge pellet (assembly into nanofibers) [2]: no pellet | ITC binding to Spike RBD, in words (SARS-CoV-2 Spike-RBD): ESBP3-Spike-binding events | ITC self-assembly, in words (SARS-CoV-2 Spike-RBD): supported spontaneous self-assembly | repeat IV dosing safety, in words ([3]; daily IV for 10 days, ~1 w% (10 mg/mL), 225-250 g adult rats): no adverse effect | significant changes in body weight (ESBP3 also animal behavior, adverse events, gross organ morphology) compared to carrier ([3]; daily repeated IV dosing for 10 days, rats): no | peptide in plasma after subcutaneous bolus ([4]; 200 µL, 10 mg/mL, once, daily blood draws for 10 days): no detectable ESBP3 | subcutaneous bolus tolerability, in words ([4]; 200 µL, 10 mg/mL, once, rats, daily blood draws for 10 days): no significant body weight changes or adverse organ morphology; also recorded: no weight loss or adverse event | histology of Sub-Q implanted boluses (H&E, Masson's Trichrome) ([4]; 7 days): infiltration of boluses with neutrophils/ macrophages | cytocompatibility, in words (A549 cells): excellent cytocompatibility | viability at 6 h, 10 µM (Cytocompatibility (CCK8); replicate 1, CCK8, 6 h): 91.9% | viability at 6 h, 10 µM (Cytocompatibility (CCK8); replicate 2, CCK8, 6 h): 85.4% | viability at 6 h, 100 µM (Cytocompatibility (CCK8); replicate 1, CCK8, 6 h): 87.2% | viability at 6 h, 100 µM (Cytocompatibility (CCK8); replicate 2, CCK8, 6 h): 97.6% | viability at 6 h, 100 µM (Cytocompatibility (CCK8); replicate 3, CCK8, 6 h): 85.4% | viability at 6 h, 1000 µM (Cytocompatibility (CCK8); replicate 1, CCK8, 6 h exposure, absorbance 450 nm): 106% | viability at 6 h, 1000 µM (Cytocompatibility (CCK8); replicate 2, CCK8, 6 h): 125% | viability at 6 h, 1000 µM (Cytocompatibility (CCK8); replicate 3, CCK8, 6 h): 119% | intranasal repeat dosing safety, in words [5]: no significant body weight changes or adverse organ morphology; also recorded: nasal turbinate showing no adverse effects; also recorded: no adverse toxicity
